Test systems include HCC-2998 colon; SK-MEL-28 melanoma; MCF7 breast; SF-268 CNS; NCI/ADR-RES ovarian; SW-620 colon; HCT-15 colon; SF-539 CNS; NCI-H460 lung; PC-3 prostate.
Assay in all cases: growth of human tumour cells (NCI), 48 h

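These data come from cells grown in 96-well plates and exposed to compound for 48 hours at five concentrations. GI50: concentration for 50% inhibition of growth. TGI marks complete inhibition of growth.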

For the compound `O=C1OC(OC/C(Br)=C(/Br)COC2OC(=O)C(Cl)=C2Cl)C(Cl)=C1Cl` (stereo not given), the TGI in the test on HCC-2998 colon worked out at 34.1 µM; in the test with SK-MEL-28 melanoma, 23.3 µM; in the test with MCF7 breast, 30.9 µM; with SF-268 CNS, 35.5 µM; in the test on NCI/ADR-RES ovarian it was 36.9 µM; in the test with SW-620 colon, 8.26 µM. Besides, the TGI in the test with HCT-15 colon turned out to be 27.1 µM; with SF-539 CNS, 36.7 µM; with NCI-H460 lung, 39.4 µM; in the test on PC-3 prostate it was 30.2 µM.

Consider `c1ccc(/C(=N\Nc2ccc3ccccc3n2)c2ccccn2)cc1`, for which the GI50 is 904 nM with HCC-2998 colon; 2660 nM in the test with SK-MEL-28 melanoma; 907 nM in the test on MCF7 breast; 743 nM with SF-268 CNS; 387 nM in the test with NCI/ADR-RES ovarian; 699 nM with SW-620 colon. The GI50 is 417 nM in the test on HCT-15 colon, 682 nM in the test with SF-539 CNS, 414 nM with NCI-H460 lung and 1250 nM with PC-3 prostate. Also, the TGI in the test with HCC-2998 colon amounted to 16.7 µM; in the test with SK-MEL-28 melanoma it was 39 µM; with MCF7 breast, 11.5 µM; in the test with SF-268 CNS it was 9.87 µM; in the test with NCI/ADR-RES ovarian, 14.2 µM; with SW-620 colon, 15.3 µM. For the same compound, the TGI in the test with HCT-15 colon was determined as 14.8 µM; in the test on SF-539 CNS, 4.57 µM; with NCI-H460 lung it was 11.3 µM; in the test with PC-3 prostate it was 55.3 µM.

Source of the values: PubChem BioAssay (NCI).
